Results taken from ChEMBL document CHEMBL1128043, “Synthesis of FK506-Cyclosporin hybrid macrocycles” (Bioorg Med Chem Lett, 1995).

target: Peptidyl-prolyl cis-trans isomerase FKBP1A (Homo sapiens, UniProt P62942); assay: Binding affinity to FK506 binding protein 12 was determined
Sequence (P62942 whole entry): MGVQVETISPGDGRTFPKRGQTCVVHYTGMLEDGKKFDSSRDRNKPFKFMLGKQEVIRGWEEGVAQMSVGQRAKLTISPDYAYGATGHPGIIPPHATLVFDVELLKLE

Row | Kd [nM] | Compound
1 | > 1000 | CCCC1C(=O)CC[C@@H](C)[C@@H](CCc2cccnc2)OC(=O)[C@@H]2CCCN(C2)C(=O)C(O)CC[S+]([O-])CC[C@@H](OC)C[C@@H](C)CC(=O)N1C (stereo not given in full)
2 | 344 | C=CC[C@@H]1/C=C(\C)C[C@H](C)C[C@H](OC)[C@@H](O)[C@@H](OC)C[C@@H](C)c2ncoc2C(=O)N2CCCC[C@H]2C(=O)O[C@H](/C(C)=C/[C@@H]2CC[C@@H](O)[C@H](OC)C2)[C@H](C)C(O)CC1=O (stereo not given in full)
3 | 320 | C=CC[C@@H]1/C=C(\C)C[C@H](C)C[C@H](OC)[C@@H](O)[C@@H](OC)C[C@@H](C)CC(=O)C(=O)N2CCCC[C@H]2C(=O)O[C@H](/C(C)=C/[C@@H]2CC[C@@H](O)[C@H](OC)C2)[C@H](C)[C@@H](O)CC1=O
4 | 644 | CCCC1C(=O)CC[C@@H](C)[C@@H](CCc2cccnc2)OC(=O)[C@@H]2CCCN(C2)C(=O)C(=O)CSCC[C@@H](OC)C[C@@H](C)CC(=O)N1C (stereo not given in full)
5 | 90 | CCC(C)C1C(=O)CC[C@@H](C)[C@@H](CCc2cccnc2)OC(=O)[C@@H]2CCCN(C2)C(=O)C(=O)CCSCC[C@@H](OC)C[C@@H](C)CC(=O)N1C (stereo not given in full)
